Where a name gives a salt, the structure may show the parent alone.
Legend:
human NCX1 [1] = target: T1, human NCX1 (Homo sapiens, UniProt P32418); test: NCX1 inhibition, forward mode (Ca2+ efflux out of cells), FLIPR calcium assay; assay type: cell-based; settings: for IC50: CHO cells stably expressing human NCX1, read-out: NCX1fw IC50; for inhibition at 10 µM: CHO cells stably expressing human NCX1, read-out: Inhibition in % at 10 μM, IC50 value not determined
T1 construct: expressed in transfected cells
Text: The sodium/calcium exchanger NCX1 can transport calcium ions and sodium ions through the cell membrane. The transport is an exchange of Ca^2+ and Na^+ in two directions depending on membrane potential and ion gradients. At the first direction, named “forward mode” or “calcium export mode”, Ca^2+ is transported out of the cell and Na^+ is transported into the cell. At the other direction, named “reverse mode” or “calcium import mode”, the transport directions are vice versa. The effect of the compounds of the invention on NCX1 was determined in CHO cells stably expressing human NCX1 (gene symbol SLC8A1; cf. WO 2009/115238). The assay is based on the monitoring of intracellular Ca^2+ concentrations using a calcium-sensitive fluorescence dye which is detected by means of a FLIPR device (Fluorimetric Imaging Plate Reader, Molecular Devices).
The assay is based on the monitoring of intracellular Ca^2+ concentrations using the PBX Calcium Assay Kit from BD (Becton, Dickinson and Company) with calcium indicator dye 51-9000177BKa (BD, 640177). CHO cells expressing NCX1 were loaded with the dye, and after a preincubation period with the test compound, Ionomycin (Calbiochem, 407950) was added. Ionomycin is an ionophor for Ca^2+ ions mediating an increase of intracellular Ca^2+ ions. Consequently, intracellular Ca^2+ ions are exchanged against extracellular Na^+ ions (Ca^2+ efflux, forward mode). The decrease of intracellular Ca^2+ ions was detected by measuring the fluorescence of the calcium indicator dye at a wavelength of 520 nm by a FLIPR device.
Briefly, similarly as for the reverse mode, for the forward mode transport assay 18000 cells per well were seeded into a 96 well microplate (Corning COSTAR 3904) and incubated overnight in culture medium (cf. above). A total volume of 100 μl medium per well was used. For the preparation of the FLIPR assay, the culture medium was removed from the plates and 100 μl of assay buffer (133.8 mM NaCl (Sigma, S5886); 4.7 mM KCl (Sigma, P3911); 1.25 mM MgCl2 (Merck, 1.05833.0250); 3.5 mM CaCl2(Merck, 1.02083.0250); 5 mM glucose (Sigma, G7021); 10 mM Hepes (Sigma, H4034); pH 7.4)) were added to each well in a washing step. Assay buffer was removed, and 100 μl of a solution of the test compound in assay buffer in different concentrations were added into the wells. Further, 100 μl of dye solution (0.09% (v/v) calcium indicator dye, 9.1% (v/v) signal enhancer (from PBX Calcium Assay Kit); in assay buffer) were added into each well. The plates were incubated in the dark at room temperature for 60 min. Meanwhile a 10 μM solution of Ionomycin in assay buffer (additionally containing 0.05% fetal calf serum (cf. above); 4° C.) was prepared and stored in the wells of a 96 well microplate (96 well microplate, polypropylene, U-shape (Greiner Bio-One, 650201)). The fluorescence monitoring was performed at 60 measuring points with measurement intervals of 2 sec. After the fifth measuring point, 50 μl of the Ionomycin solution were added to each well of the assay plate to give a final Ionomycin concentration of 2 μM. For the determination of the IC50 values the minimal fluorescence value was subtracted from the maximal fluorescence value for the fifteenth to fifty-fifth measuring points. The calculation of the IC50 values via the percentage inhibitions of Ca^2+ efflux out of cells (forward mode) effected by the test compound was performed in Biost@t Speed 2.0. “NCX1fw IC50” in Table 2 means the IC50 value for inhibition of NCX1 in forward mode (in μM (micromol/liter)).

human NCX1 [2] = target: T1, human NCX1; test: NCX1 inhibition, reverse mode (Ca2+ influx into cells), FLIPR Fluo-4 assay; assay type: cell-based; settings: inhibition of NCX1 in reverse mode (Ca2+ influx into cells); read-out: NCX1rv IC50
Outline: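 CHO cells stably expressing human NCX1 were loaded with 2 µM Fluo-4 AM for 80 min at room temperature, then preincubated with compound for 45 min at 16 °C in pH 7.4 HEPES buffer (3.5 mM CaCl2, 2.5 mM probenecid). Reverse-mode Ca2+ influx was triggered by 20 µM final gramicidin and read at 520 nm on FLIPR. IC50 came from % inhibition of max−min fluorescence.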

Compound	IC50 (human NCX1 [1]) [nM]	IC50 (human NCX1 [2]) [nM]	inhibition at 10 µM (human NCX1 [1]) [%]
O=C(NCc1nnc2n1CCC2)c1cnc(Oc2ccc3c(c2)CCC(c2ccccc2)O3)s1 (stereo not shown) [Example 2, 2-(2-Phenyl-chroman-6-yloxy)-thiazole-5-carboxylic acid (6,7-dihydro-5H-pyrrolo[2,1-c][1,2,4]triazol-3-ylmethyl)-amide]	1900	300	–
CC(NC(=O)c1cnc(Oc2ccc3c(c2)CCC(c2cccc(F)c2)O3)s1)c1ccncc1 (stereo not shown) [Example 13, hydrochloride]	900	300	–
Cc1c(CNC(=O)c2cnc(Oc3ccc4c(c3)CCC(c3ccccc3)O4)s2)cnn1C (stereo not shown) [Example 14, 2-(2-Phenyl-chroman-6-yloxy)-thiazole-5-carboxylic acid (1,5-dimethyl-1H-pyrazol-4-ylmethyl)-amide]	2200	300	–
O=C(NCc1ccncc1)c1cnc(Oc2ccc3c(c2)CCC(c2cccc(F)c2)O3)s1 (stereo not shown) [Example 18, hydrochloride]	600	200	–
O=C(NCc1nnc2n1CCC2)c1cnc(Oc2ccc3c(c2)CCC(c2cccc(F)c2)O3)s1 (stereo not shown) [Example 20, hydrochloride]	1200	200	–
O=C(NCc1ccncn1)c1cnc(Oc2ccc3c(c2)CCC(c2ccccc2)O3)s1 (stereo not shown) [Example 32]	–	600	27
O=C(NCc1ccnc(Cl)c1)c1cnc(Oc2ccc3c(c2)CCC(c2ccccc2)O3)s1 (stereo not shown) [Example 39, 2-(2-Phenyl-chroman-6-yloxy)-thiazole-5-carboxylic acid (2-chloro-pyridin-4-ylmethyl)-amide]	1200	300	–
O=C(NCc1ccno1)c1cnc(Oc2ccc3c(c2)CCC(c2cccnc2)O3)s1 (stereo not shown) [Example 58, hydrochloride]	8300	600	–
Cc1nc(Oc2ccc3c(c2)CCC(c2ccccc2)O3)sc1C(=O)NCc1ccncc1 (stereo not shown) [Example 59, hydrochloride]	200	100	–
c1ccc(C2CCc3cc(Oc4ncc(CNC5CC5)s4)ccc3O2)cc1 (stereo not shown) [Example 103]	3100	200	–
Cc1nn(C)c(C)c1S(=O)(=O)NCc1cnc(Oc2ccc3c(c2)CCC(c2ccccc2)O3)s1 (stereo not shown) [Example 125, 1,3,5-Trimethyl-1H-pyrazole-4-sulfonic acid [2-(2-phenyl-chroman-6-yloxy)-thiazol-5-ylmethyl]-amide]	–	9200	20
c1ccc(C2CCc3cc(Oc4ncc(CNCc5ccncc5)s4)ccc3O2)cc1 (stereo not shown) [Example 134, [2-(2-Phenyl-chroman-6-yloxy)-thiazol-5-ylmethyl]-pyridin-4-ylmethyl-amine]	2600	200	–
CCCCNC(=O)c1cnc(Oc2ccc3c(c2)CCC(c2ccccc2)O3)s1 (stereo not shown) [compound 317]	–	100	–
CC(C)CNC(=O)c1cnc(Oc2ccc3c(c2)CCC(c2ccccc2)O3)s1 (stereo not shown) [compound 318]	–	100	–
OCCN(CCO)Cc1cnc(Oc2ccc3c(c2)CCC(c2ccccc2)O3)s1 (stereo not shown) [compound 319]	–	800	–
CC(C)NC(=O)c1cnc(Oc2ccc3c(c2)CCC(c2ccccc2)O3)s1 (stereo not shown) [compound 320]	–	300	–
CCc1ccccc1C1CCc2cc(Oc3ncc(C(=O)NCCN4CCNC4=O)s3)ccc2O1 (stereo not shown) [compound 322]	–	1100	–
CCc1ccccc1C1CCc2cc(Oc3ncc(C(=O)NCCc4c(C)noc4C)s3)ccc2O1 (stereo not shown) [compound 323]	–	900	–
CCc1ccccc1C1CCc2cc(Oc3ncc(C(=O)NCc4ccno4)s3)ccc2O1 (stereo not shown) [compound 324]	–	500	–
Cc1ccccc1C1CCc2cc(Oc3ncc(CNC(=O)CN4C(=O)CNC4=O)s3)ccc2O1 (stereo not shown) [compound 328]	–	900	–
Cc1cccc(C)c1C1CCc2cc(Oc3ncc(C(=O)NCc4ccno4)s3)ccc2O1 (stereo not shown) [compound 331]	–	5500	–
CCCNC(=O)c1sc(Oc2ccc3c(c2)CCC(c2ccccc2C)O3)nc1C (stereo not shown) [compound 332]	–	10000	–
Cc1ccccc1C1CCc2cc(Oc3nc(C)c(C(=O)NCCN4CCNC4=O)s3)ccc2O1 (stereo not shown) [compound 333]	–	600	–
Cc1ccccc1C1CCc2cc(Oc3nc(C)c(C(=O)N4CC[C@@H](O)C4)s3)ccc2O1 (stereo partly shown) [compound 336]	–	600	–
Cc1cccc(C)c1C1CCc2cc(Oc3ncc(C(=O)NCCO)s3)ccc2O1 (stereo not shown) [compound 337]	–	7600	–

Compound	IC50 (human NCX1 [1]) [nM]	IC50 (human NCX1 [2]) [nM]	inhibition at 10 µM (human NCX1 [1]) [%]
Cc1cccc(C)c1C1CCc2cc(Oc3ncc(C(=O)N(C)C)s3)ccc2O1 (stereo not shown) [compound 338]	–	8700	–
NC(=O)c1cnc(Oc2ccc3c(c2)CCC(c2ccccc2)O3)s1 (stereo not shown) [compound 339]	–	400	–
N[C@@H](CO)C(=O)NCc1cnc(Oc2ccc3c(c2)CCC(c2ccccc2)O3)s1 (stereo partly shown) [compound 340, hydrochloride]	–	900	–
O=C(NCc1cnc(Oc2ccc3c(c2)CCC(c2ccccc2)O3)s1)[C@@H]1CCCN1 (stereo partly shown) [compound 341, hydrochloride]	–	900	–
Cc1ccc(F)cc1C1CCc2cc(Oc3ncc(C(=O)NCc4ccno4)s3)ccc2O1 (stereo not shown) [compound 344]	–	800	–
O=C(CN1CCCC1)NCc1cnc(Oc2ccc3c(c2)CCC(c2ccccc2)O3)s1 (stereo not shown) [compound 346, hydrochloride]	–	170	–
Cc1ccc(F)cc1C1CCc2cc(Oc3ncc(C(=O)NCCN4CCNC4=O)s3)ccc2O1 (stereo not shown) [compound 349]	–	200	–
O=C(NCCO)c1csc(Oc2ccc3c(c2)CC[C@@H](c2ccccc2)O3)n1 [compound 350]	–	120	–
CCCNC(=O)c1csc(Oc2ccc3c(c2)CC[C@@H](c2ccccc2)O3)n1 [compound 351]	–	110	–
O=C(NCc1ccno1)c1csc(Oc2ccc3c(c2)CC[C@@H](c2ccccc2)O3)n1 [compound 353]	–	92	–
CC(O)CNC(=O)c1cnc(Oc2ccc3c(c2)CCC(c2ccccc2)O3)s1 (stereo not shown) [compound 354]	–	160	–
O=C(NC1CCCC1O)c1cnc(Oc2ccc3c(c2)CCC(c2ccccc2)O3)s1 (stereo not shown) [compound 355]	–	250	–
Cc1ccc(F)cc1C1CCc2cc(Oc3ncc(C(=O)N4CC[C@@H](O)C4)s3)ccc2O1 (stereo partly shown) [compound 356]	–	540	–
Cc1cc2c(cc1Oc1ncc(C(=O)NCCO)s1)CCC(c1ccccc1C)O2 (stereo not shown) [compound 357]	–	600	–
Cc1cc2c(cc1Oc1ncc(C(=O)NCc3ccno3)s1)CCC(c1ccccc1C)O2 (stereo not shown) [compound 358]	–	830	–
CCn1nccc1CNC(=O)c1cnc(Oc2cc3c(cc2C)OC(c2ccccc2C)CC3)s1 (stereo not shown) [compound 359]	–	1500	–
COc1cccc(C2CCc3cc(Oc4ncc(C(=O)NCCO)s4)ccc3O2)c1F (stereo not shown) [compound 360]	–	1800	–
COc1cccc(C2CCc3cc(Oc4ncc(C(=O)NCc5ccno5)s4)ccc3O2)c1F (stereo not shown) [compound 361]	–	9600	–
CCn1nccc1CNC(=O)c1cnc(Oc2ccc3c(c2)CCC(c2cccc(OC)c2F)O3)s1 (stereo not shown) [compound 362]	–	1500	–
CC1Cc2cc(Oc3ncc(C(=O)NCc4ccno4)s3)ccc2OC1c1ccccc1 (stereo not shown) [compound 363]	–	1900	–
CC1Cc2cc(Oc3ncc(C(=O)NCCO)s3)ccc2OC1c1ccccc1 (stereo not shown) [compound 364]	–	960	–
CCn1nccc1CNC(=O)c1cnc(Oc2ccc3c(c2)CCC(c2cccc(F)c2OC)O3)s1 (stereo not shown) [compound 365]	–	550	–
COc1c(F)cccc1C1CCc2cc(Oc3ncc(C(=O)NCc4ccno4)s3)ccc2O1 (stereo not shown) [compound 366]	–	180	–
COc1c(F)cccc1C1CCc2cc(Oc3ncc(C(=O)NCCO)s3)ccc2O1 (stereo not shown) [compound 367]	–	270	–
